For assay [1], the system named is Cricetinae gen. sp. Briefly: Compound was tested for its ability to inhibit the intestinal absorption of [3H]cholesterol in cholesterol-fed hamsters at 10 mg/kg dose. The class given is functional, Cricetulus griseus.
Assay [2] has as its system Cricetinae gen. sp. Briefly: Compound was tested for its ability to inhibit the intestinal absorption of [3H]cholesterol in cholesterol-fed hamsters at 100 mg/kg dose. Type of assay: functional, Cricetulus griseus.
Assay [3] concerns Cricetinae gen. sp. Briefly: Ability to inhibit the intestinal absorption of [3H]cholesterol in cholesterol-fed hamsters. The class given is functional.
For assay [4], the system named is Cricetinae gen. sp. Briefly: Compound was tested for its ability to inhibit the intestinal absorption of [3H]cholesterol in cholesterol-fed hamsters at 5 mg/kg dose. The class given is functional, Cricetulus griseus.
The test system of assay [5] is Cricetinae gen. sp. Briefly: Compound was tested for its ability to inhibit the intestinal absorption of [3H]cholesterol in cholesterol-fed hamsters at 200 mg/kg dose. The class given is functional, Cricetulus griseus.

The structures appear in SMILES notation.

As usually defined, the inhibition in vivo is how much of the control response was suppressed. Read a low inhibition in vivo as a weak effect. By ED50 is commonly meant the dose that gives a 50% effect, or the effect in half of the subjects.

With `C[C@@H]1CC[C@@]2(OC1)OC1C[C@H]3[C@@H]4CC[C@H]5C[C@@H](O[C@@H]6O[C@@H](CO)[C@@H](O[C@@H]7O[C@@H](CO)[C@@H](O)[C@H](O)[C@@H]7O)[C@H](O)[C@@H]6O)CC[C@]5(C)[C@H]4C(=O)C[C@]3(C)C1[C@@H]2C` (some centres not stated), the inhibition in vivo at 10 mg/kg in the assay on Cricetinae gen. sp. [1] came to 23%.
In the case of `C[C@]12CC[C@@H]3c4ccc(O[C@@H]5O[C@@H](CO)[C@@H](O[C@@H]6O[C@@H](CO)[C@@H](O)[C@H](O)[C@@H]6O)[C@H](O)[C@@H]5O)cc4CC[C@H]3[C@@H]1CCC2=O`, at 100 mg/kg the inhibition in vivo with Cricetinae gen. sp. [2] was 14%.
In the assay on Cricetinae gen. sp. [3], `C[C@]12CC[C@H](O[C@@H]3O[C@@H](CO)[C@@H](O[C@@H]4O[C@@H](CO)[C@@H](O)[C@H](O)[C@@H]4O)[C@H](O)[C@@H]3O)C[C@@H]1CC[C@@H]1[C@@H]2CC[C@]2(C)C(=O)CC[C@@H]12` yielded an ED50 of 25 mg/kg.
On to `C[C@@H]1CC[C@@]2(OC1)OC1CC3C4CC[C@H]5C[C@@H](O[C@@H]6O[C@@H](COC(=O)Nc7ccc(Cl)cc7)[C@@H](O[C@@H]7O[C@@H](CO)[C@@H](O)[C@H](O)[C@@H]7O)[C@H](O)[C@@H]6O)CC[C@]5(C)C4C(=O)C[C@]3(C)C1[C@@H]2C` (some centres not stated), for which 5 mg/kg produced 37% inhibition in vivo in the assay on Cricetinae gen. sp. [4].
`C[C@@H]1CC[C@@]2(OC1)OC1CC3C4CC[C@H]5C[C@@H](O[C@@H]6O[C@@H](CO)[C@@H](O[C@@H]7O[C@@H](COC(=O)NCc8ccco8)[C@@H](OC(=O)NCc8ccco8)[C@H](O)[C@@H]7O)[C@H](O)[C@@H]6O)CC[C@]5(C)C4C(=O)C[C@]3(C)C1[C@@H]2C` (some centres not stated): the ED50 with Cricetinae gen. sp. [3] came out at 0.3 mg/kg.
On the same count and under the same terms, as for `C[C@@H]1CC[C@@]2(OC1)OC1CC3C4CC[C@H]5C[C@@H](O[C@@H]6O[C@@H](CO)[C@@H](O[C@@H]7O[C@@H](COC(=O)NCc8ccccc8)[C@@H](O)[C@H](O)[C@@H]7O)[C@H](O)[C@@H]6O)CC[C@]5(C)C4C(=O)C[C@]3(C)C1[C@@H]2C` (some centres not stated), the figure is 5 mg/kg.
`C[C@@]12CCC[C@H]1[C@@H]1CC[C@H]3C[C@@H](O[C@@H]4O[C@@H](CO)[C@@H](O[C@@H]5O[C@@H](CO)[C@@H](O)[C@H](O)[C@@H]5O)[C@H](O)[C@@H]4O)CC[C@]3(C)[C@H]1CC2` gave an inhibition in vivo at 200 mg/kg in the assay on Cricetinae gen. sp. [5] of 37%.
`C[C@@H]1CC[C@@]2(OC1)OC1CC3C4CC[C@H]5C[C@@H](O[C@@H]6O[C@@H](CO)[C@@H](O[C@@H]7O[C@@H](COC(=O)Nc8ccc(F)cc8F)[C@@H](O)[C@H](O)[C@@H]7O)[C@H](O)[C@@H]6O)CC[C@]5(C)C4C(=O)C[C@]3(C)C1[C@@H]2C` (some centres not stated) had an ED50 in the assay with Cricetinae gen. sp. [3] of 0.25 mg/kg.
In the assay on Cricetinae gen. sp. [3], `C[C@@H]1CC[C@@]2(OC1)OC1CC3C4CC[C@H]5C[C@@H](O[C@@H]6O[C@@H](COC(=O)Nc7ccccc7)[C@@H](O[C@@H]7O[C@@H](COC(=O)Nc8ccccc8)[C@@H](O)[C@H](O)[C@@H]7O)[C@H](O)[C@@H]6O)CC[C@]5(C)C4C(=O)C[C@]3(C)C1[C@@H]2C` (some centres not stated) gave an ED50 of 5 mg/kg. This ED50 lies about 20-fold higher than the previous one.
Compound `C[C@@H]1CC[C@@]2(OC1)OC1CC3C4CC[C@H]5C[C@@H](O[C@@H]6O[C@@H](CO)[C@@H](O[C@@H]7O[C@@H](COC(=O)Nc8c(Cl)cccc8Cl)[C@@H](OC(=O)Nc8c(Cl)cccc8Cl)[C@H](O)[C@@H]7O)[C@H](O)[C@@H]6O)CC[C@]5(C)C4C(=O)C[C@]3(C)C1[C@@H]2C` (some centres not stated) came in with an inhibition in vivo at 5 mg/kg in the assay with Cricetinae gen. sp. [4] of 40%.
In turn, `C[C@@H]1CC[C@@]2(OC1)O[C@H]1C[C@H]3[C@@H]4CC[C@H]5C[C@@H](O[C@@H]6O[C@H](CO)[C@@H](O)[C@H](O)[C@H]6O)CC[C@]5(C)[C@H]4C(=O)C[C@]3(C)[C@H]1[C@@H]2C` had an ED50 in the assay on Cricetinae gen. sp. [3] of 16 mg/kg.
On to `C[C@@H]1CC[C@@]2(OC1)O[C@H]1C[C@H]3[C@@H]4CC[C@H]5C[C@@H](O[C@@H]6O[C@@H](CO)[C@@H](O[C@@H]7O[C@@H](CO)[C@@H](O)[C@H](O)[C@@H]7O)[C@H](O)[C@@H]6O)CC[C@]5(C)[C@H]4CC(=O)[C@]3(C)[C@H]1[C@@H]2C` [CELLOBIOSYL HECOGENIN], for which, in the assay with Cricetinae gen. sp. [3], the 50% effect level (ED50) was put at a dose of 10 mg/kg.

For the origin of these results see ChEMBL document CHEMBL1130210, “Steroidal glycoside cholesterol absorption inhibitors” (1997).
